Data set [1] deals with Swiss albino mice and Guinea pigs. Put plainly: Plasma triglyceride and total cholesterol lowering activity in Swiss albino mice and Guinea pigs. The data set is classed as in vivo. To be noted: 3 mg/kg orally for 6 days; species of the table not stated (Swiss albino mice or Guinea pigs). The method, then:
Male Swiss albino mice (SAM) and male Guinea pigs were obtained from NIN and housed in DRF animal house. All these animals were maintained under 12 hour light and dark cycle at 25±1° C. Animals were given standard laboratory chow (NIN, Hyderabad, India) and water, ad libitum. SAM of 20-25 g body weight range and Guinea pigs of 500-700 g body weight range were used (Oliver, P., Plancke, M. O., Marzin, D., Clavey, V., Sauzieres, J and Fruchart, J. C. Effects of fenofibrate, gemfibrozil and nicotinic acid on plasma lipoprotein levels in normal and hyperlipidemic mice. Atherosclerosis. 1988. 70:107-114).
The test compounds were administered orally to Swiss albino mice at 0.3 to 30 mg/kg/day dose for 6 days. Control mice were treated with vehicle (0.25% Carboxymethylcellulose; dose 10 ml/kg). The test compounds were administered orally to Guinea pigs at 0.3 to 30 mg/kg/day dose for 6 days. Control animals were treated with vehicle (0.25% Carboxymethylcellulose; dose 5 ml/kg).
The blood samples were collected in fed state 1 hour after drug administration on 0 and 6 day of treatment. The blood was collected from the retro-orbital sinus through heparinised capillary in EDTA containing tubes. After centrifugation, plasma sample was separated for triglyceride and total cholesterol (Wieland, O. Methods of Enzymatic analysis. Bergermeyer, H. O., Ed., 1963. 211-214; Trinder, P. Ann. Clin. Biochem. 1969. 6:24-27). Measurement of plasma triglyceride, total cholesterol and HDL were done using commercial kits (Dr. Reddy's Diagnostic Division, Hyderabad, India).
(§1) 1. Percent reduction in Blood sugar/triglycerides/total cholesterol were calculated according to the formula: [formula]

The next data set deals with C57BL/KsJ-db/db mice. Description: Efficacy in genetic models: blood sugar and triglyceride lowering in db/db mice. Particulars: 3 mg/kg oral gavage daily for 6 days. The data set is classed as in vivo.
Text: Mutation in colonies of laboratory animals and different sensitivities to dietary regimens have made the development of animal models with non-insulin dependent diabetes and hyperlipidemia associated with obesity and insulin resistance possible. Genetic models such as db/db and ob/ob (Diabetes, (1982) 31(1):1-6) mice and zucker fa/fa rats have been developed by the various laboratories for understanding the pathophysiology of disease and testing the efficacy of new antidiabetic compounds (Diabetes, (1983) 32:830-838; Annu. Rep. Sankyo Res. Lab. (1994). 46:1-57). The homozygous animals, C57 BL/KsJ-db/db mice developed by Jackson Laboratory, US, are obese, hyperglycemic, hyperinsulinemic and insulin resistant (J. Clin. Invest., (1990) 85:962-967), whereas heterozygous are lean and normoglycemic. In db/db model, mouse progressively develops insulinopenia with age, a feature commonly observed in late stages of human type II diabetes when blood sugar levels are insufficiently controlled. The state of pancreas and its course vary according to the models. Since this model resembles that of type II diabetes mellitus, the compounds of the present invention were tested for blood sugar and triglycerides lowering activities.
Male C57BL/KsJ-db/db mice of 8 to 14 weeks age, having body weight range of 35 to 60 grams, bred at Dr. Reddy's Research Foundation (DRF) animal house, were used in the experiment. The mice were provided with standard feed (National Institute of Nutrition (NIN), Hyderabad, India) and acidified water, ad libitum. The animals having more than 350 mg/dl blood sugar were used for testing. The number of animals in each group was 4.
Test compounds were suspended on 0.25% carboxymethyl cellulose and administered to test group at a dose of 0.001 mg to 30 mg/kg through oral gavage daily for 6 days. The control group received vehicle (dose 10 ml/kg). On 6th day the blood samples were collected one hour after administration of test compounds/vehicle for assessing the biological activity.
The random blood sugar and triglyceride levels were measured by collecting blood (100 μl) through orbital sinus, using heparinised capillary in tubes containing EDTA which was centrifuged to obtain plasma. The plasma glucose and triglyceride levels were measured spectrometrically, by glucose oxidase and glycerol-3-PO4 oxidase/peroxidase enzyme (Dr. Reddy's Lab. Diagnostic Division Kits, Hyderabad, India) methods respectively.
The blood sugar and triglycerides lowering activities of the test compound was calculated according to the formula described below.
as §1

The subject of data set [2] is hypercholesterolemic Sprague Dawley rats. Put plainly: Cholesterol lowering activity in hypercholesterolemic rat models. To be noted: for LDL↓ (%): LDL calculated; for VLDL↓ (%): VLDL calculated. The data set is classed as in vivo. Here is the method: Male Sprague Dawley rats (NIN stock) were bred in DRF animal house. Animals were maintained under 12 hour light and dark cycle at 25±1° C. Rats of 180-200 gram body weight range were used for the experiment. Animals were made hypercholesterolemic by feeding 2% cholesterol and 1% sodium cholate mixed with standard laboratory chow [National Institute of Nutrition (NIN), Hyderabad, India] for 6 days. Throughout the experimental period the animals were maintained on the same diet (Petit, D., Bonnefis, M. T., Rey, C and Infante, R. Effects of ciprofibrate on liver lipids and lipoprotein synthesis in normo- and hyperlipidemic rats. Atherosclerosis. 1988. 74: 215-225).
The test compounds were administered orally at a dose 0.1 to 30 mg/kg/day for 3 days. Control group was treated with vehicle alone (0.25% Carboxymethylcellulose; dose 10 ml/kg).
The blood samples were collected in fed state 1 hour after drug administration on 0 and 3 day of compound treatment. The blood was collected from the retro-orbital sinus through heparinised capillary in EDTA containing tubes. After centrifugation, plasma sample was separated for total cholesterol, HDL and triglyceride estimations. Measurement of plasma triglyceride, total cholesterol and HDL were done using commercial kits (Dr. Reddy's Laboratory, Diagnostic Division, India). LDL and VLDL cholesterol were calculated from the data obtained for total cholesterol, HDL and triglyceride. The reduction of various parameters examined are calculated according to the formula.
as §1
2. LDL and VLDL cholesterol levels were calculated according to the formula: [formula]
VLDL cholesterol in mg/dl=[Total cholesterol−HDL cholesterol−LDL cholesterol] mg/dl

For the next data set, the target named is T1, hPPARα (Homo sapiens, UniProt Q07869).
T1 construct: expressed in transfected cells; host or cells: HEK-293
T1 sequence (Q07869 239-466 limits assumed): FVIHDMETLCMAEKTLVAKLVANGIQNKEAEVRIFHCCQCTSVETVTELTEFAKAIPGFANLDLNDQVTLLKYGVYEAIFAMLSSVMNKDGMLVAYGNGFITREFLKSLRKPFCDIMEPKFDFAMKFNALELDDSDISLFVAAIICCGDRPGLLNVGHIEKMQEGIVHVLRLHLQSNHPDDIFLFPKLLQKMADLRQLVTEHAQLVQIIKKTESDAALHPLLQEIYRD
Put plainly: Determination of hPPARα activity (GAL4 fusion luciferase reporter, HEK-293 cells). The format is cell-based. Particulars: Concentration 50 μM. Here is the method: Ligand binding domain of hPPARα was fused to DNA binding domain of Yeast transcription factor GAL4 in eucaryotic expression vector. Using superfect (Qiagen, Germany) as transfecting reagent HEK-293 cells were transfected with this plasmid and a reporter plasmid harboring the luciferase gene driven by a GALA specific promoter. Compound was added at different concentrations after 42 hrs of transfection and incubated overnight. Luciferase activity as a function of compound binding/activation capacity of PPARα was measured using Packard Luclite kit (Packard, USA) in Top Count (Ivan Sadowski, Brendan Bell, Peter Broag and Melvyn Hollis. Gene. 1992. 118: 137-141; Superfect Transfection Reagent Handbook. February, 1997. Qiagen, Germany).
For orientation: A reporter such as luciferase makes a cellular process visible.

Another data set concerns the target T2, hPPARγ1 (Homo sapiens, UniProt P37231).
T2 construct: expressed in transfected cells; host or cells: HEK-293
T2 sequence (P37231 238-503 limits assumed): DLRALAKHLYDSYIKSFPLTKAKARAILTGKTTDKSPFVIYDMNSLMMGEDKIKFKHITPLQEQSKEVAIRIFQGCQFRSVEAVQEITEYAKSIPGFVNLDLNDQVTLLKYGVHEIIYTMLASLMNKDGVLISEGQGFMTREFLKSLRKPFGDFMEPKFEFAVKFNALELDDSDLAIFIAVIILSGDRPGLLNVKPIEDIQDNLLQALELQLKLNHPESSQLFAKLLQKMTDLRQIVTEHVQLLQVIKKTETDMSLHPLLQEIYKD
Put plainly: Determination of hPPARγ activity (GAL4 fusion luciferase reporter, HEK-293 cells). The data set is classed as cell-based. To be noted: Concentration 1 μM. The method, then:
Ligand binding domain of hPPARγ1 was fused to DNA binding domain of Yeast transcription factor GAL4 in eucaryotic expression vector. Using lipofectamine (Gibco BRL, USA) as transfecting reagent HEK-293 cells were transfected with this plasmid and a reporter plasmid harboring the luciferase gene driven by a GAL4 specific promoter. Compound was added at 1 μM concentration after 48 hrs of transfection and incubated overnight. Luciferase activity as a function of drug binding/activation capacity of PPARγ was measured using Packard Luclite kit (Packard, USA) in Packard Top Count (Ivan Sadowski, Brendan Bell, Peter Broag and Melvyn Hollis. Gene. 1992. 118:137-141; Guide to Eukaryotic Transfections with Cationic Lipid Reagents. Life Technologies, GIBCO BRL, USA).

The source of these data is patent US6664411B2, “Heterocyclic compounds and their use in medicine; process for their preparation and pharmaceutical compositions containing them” (Dr. Reddy's Laboratories Limited, priority 1997, dated 2003).

Each structure is given as a SMILES string.

As for `CCOC(Cc1ccc(OCC2NC(=O)c3cc(Cl)ccc3N2)cc1)C(=O)O` (racemic) [Example 18, (±)-2-Ethoxy-3-[4-[[6-chloro-4-oxo-1,2,3,4-tetrahydro-2-quinazolinyl]methoxy]phenyl]propanoic Acid], in data set [1], the “Triglyceride (%)↓” value amounted to 63%.

Regarding `CCOC(Cc1ccc(OCC2Nc3ccccc3C(=O)N2C)cc1)C(=O)OC` (racemic) [Example 19, (±)-Methyl 2-ethoxy-3-[4-[[3-methyl-4-oxo-1,2,3,4-tetrahydro-2-quinazolinyl]methoxy]phenyl]propanoate], in the data set with C57BL/KsJ-db/db mice, the “Reduction in Blood Glucose Level (%)” value worked out at 31% and the “Triglyceride Lowering (%)” value is recorded as 62%. Besides, the “Triglyceride (%)↓” value in data set [1] is recorded as 51%.

Take `CCOC(Cc1ccc(OCCN2COc3ccccc3C2=O)cc1)C(=O)[O-].[Na+]` (racemic) [Example 4, (±)-Sodium 2-ethoxy-3-[4-[2-[4-oxo-3,4-dihydro-1,3-benzoxazin-3-yl]ethoxy]phenyl]propanoate]: in data set [2] (3 mg/kg orally for 3 days), the “HDL↑ (%)” value turned out to be 256%, the “Total Cholesterol (%)↓” value worked out at 64%, the “Triglyceride (%)↓” value is on record as 61% and the “LDL↓ (%)” value is listed as 76%. Besides, the “VLDL↓ (%)” value in data set [2] (3 mg/kg orally for 3 days) is recorded as 67%.

With `CCOC(Cc1ccc(OCC2NC(=O)c3ccccc3N2)cc1)C(=O)O` (racemic) [Example 16, (±)-2-Ethoxy-3-[4-[[4-oxo-1,2,3,4-tetrahydro-2-quinazolinyl]methoxy]phenyl]propanoic Acid], in the data set with C57BL/KsJ-db/db mice, the “Reduction in Blood Glucose Level (%)” value is 18% and the “Triglyceride Lowering (%)” value turned out to be 13%.

Regarding `CCOC(Cc1ccc(OCC2NC(=O)c3ccccc3O2)cc1)C(=O)O` (racemic) [Example 14, (±)-2-Ethoxy-3-[4-[[4-oxo-3,4-dihydro 1,3-benzoxazin-2-yl]methoxy]phenyl]propanoic Acid], in the data set on C57BL/KsJ-db/db mice, the “Reduction in Blood Glucose Level (%)” value is listed as 55% and the “Triglyceride Lowering (%)” value is recorded as 46%.

By melting point is commonly meant the temperature, or range, at which the solid turns liquid. Regarding `CCOC(Cc1ccc(OCCN2COc3ccccc3C2=O)cc1)C(=O)NC(CO)c1ccccc1` [Example 7a, [2R, N(1S)] 2-Ethoxy-3-[4-[2-[4-oxo-3,4-dihydro-1,3-benzoxazin-3-yl]ethoxy]phenyl]-N-(2-hydroxy-1-phenylethyl)propanamide], the melting point fell in the range of 64 to 68 °C.

Turning to `CCOC(Cc1ccc(OCCN2COc3ccccc3C2=O)cc1)C(=O)O` (racemic) [Example 3, (±) 2-Ethoxy-3-[4-[2-[4-oxo-3,4-dihydro-1,3-benzoxazin-3-yl]ethoxy]phenyl]propanoic Acid], at hPPARα, the PPARα was 7. This compound returned a PPARγ on hPPARγ1 of 11. For the same compound, in data set [2] (0.3 mg/kg orally for 3 days), the “HDL↑ (%)” value was 110%, the “Total Cholesterol (%)↓” value was 64%, the “Triglyceride (%)↓” value turned out to be 62% and the “LDL↓ (%)” value was 74%. Also, in data set [2] (0.3 mg/kg orally for 3 days), the “VLDL↓ (%)” value was 50%.

As for `CCOC(Cc1ccc(OCCN2COc3ccccc3C2=O)cc1)C(=O)NC(CO)c1ccccc1` (stereo not shown) [Example 7], the “Triglyceride (%)↓” value in data set [1] is on record as 61%.
